# Assay results published in patent US10344025B2, “GLS1 inhibitors for treating disease” (Board of Regents, The University of Texas System, priority 2014, dated 2019).
# Legend:
# [1] = molecular target: purified recombinant human GAC (GLS1) (Homo sapiens (Human), UniProt O94925); experiment: GLS1 Enzymatic Activity Assay (dual-coupled enzymatic assay, resorufin/Amplex UltraRed readout); type: biochemical;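 note: glutamate from GAC coupled via glutamate oxidase and peroxidase to resorufin, read as fluorescence (ex 530, em 590 nm) kinetically or at 20 min, four-parameter logistic IC50 fit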
# A549 cells = experiment: Proliferation Assay (A549 viability, Cell Titer Fluor, 72 hours); type: cell-based; conditions: Homo sapiens, A549, 72 h
# How it was run: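 Cell Titer Fluor fluorescence after 72 h compound treatment (0.5% DMSO, 37 °C, 5% CO2) of A549 cells plated 24 h earlier at 1000/well. Four-parameter logistic fitting gave IC50.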
# Chain of purified recombinant human GAC (GLS1) (O94925 other isoform, or with tags, fused parts or gaps): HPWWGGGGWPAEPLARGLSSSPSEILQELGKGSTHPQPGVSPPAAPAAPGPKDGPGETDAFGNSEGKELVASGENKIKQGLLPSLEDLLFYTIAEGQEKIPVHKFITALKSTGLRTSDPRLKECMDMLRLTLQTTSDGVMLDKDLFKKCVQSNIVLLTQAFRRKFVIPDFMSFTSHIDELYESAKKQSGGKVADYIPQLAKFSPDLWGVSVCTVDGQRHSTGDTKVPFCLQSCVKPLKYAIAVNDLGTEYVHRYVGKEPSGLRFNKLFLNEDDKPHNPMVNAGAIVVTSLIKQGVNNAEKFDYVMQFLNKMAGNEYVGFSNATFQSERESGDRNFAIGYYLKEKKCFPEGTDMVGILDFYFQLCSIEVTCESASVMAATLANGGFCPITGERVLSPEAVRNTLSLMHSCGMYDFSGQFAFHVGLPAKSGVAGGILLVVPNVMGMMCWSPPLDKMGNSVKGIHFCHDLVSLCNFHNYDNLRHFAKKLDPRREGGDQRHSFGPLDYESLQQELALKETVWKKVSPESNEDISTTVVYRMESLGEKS
structure (smiles),measurement,setting,value
"O=C(NCc1cccc(C(F)(F)F)c1)c1cn(CCCCn2cc(C(=O)NCC3CCCCO3)nn2)nn1 (stereo not shown) [Example 121, N-(oxan-2-ylmethyl)-1-{4-[4-({[3-(trifluoromethyl)phenyl]methyl}carbamoyl)-1H-1,2,3-triazol-1-yl]butyl}-1H-1,2,3-triazole-4-carboxamide]",IC50,[1],100 to 500 nM
same,EC50,A549 cells,100 to 500 nM
"O=C(Cc1cc(OC(F)(F)F)ccc1F)Nc1cn(CC(F)CCn2cc(C(=O)NCc3cccc(OC(F)(F)F)c3)nn2)nn1 (stereo not shown) [Example 379, 1-[3-fluoro-4-(4-{2-[2-fluoro-5-(trifluoromethoxy)phenyl]acetamido}-1H-1,2,3-triazol-1-yl)butyl]-N-{[3-(trifluoromethoxy)phenyl]methyl}-1H-1,2,3-triazole-4-carboxamide]",IC50,[1],< 100 nM
same,EC50,A549 cells,< 100 nM
"O=C(Cc1cncs1)Nc1nnc(CCC(F)Cn2cc(C(=O)NCc3cc(OC(F)(F)F)ccc3F)nn2)s1 (stereo not shown) [Example 593, 1-(2-fluoro-4-(5-(2-(thiazol-5-yl)acetamido)-1,3,4-thiadiazol-2-yl)butyl)-N-(2-fluoro-5-(trifluoromethoxy)benzyl)-1H-1,2,3-triazole-4-carboxamide]",IC50,[1],< 100 nM
same,EC50,A549 cells,< 100 nM
"O=C(Cc1ccn[nH]1)Nc1nnc(CCC(F)Cn2cc(C(=O)NCc3cc(OC(F)(F)F)ccc3F)nn2)s1 (stereo not shown) [Example 575, 1-(4-(5-(2-(1H-pyrazol-5-yl)acetamido)-1,3,4-thiadiazol-2-yl)-2-fluorobutyl)-N-(2-fluoro-5-(trifluoromethoxy)benzyl)-1H-1,2,3-triazole-4-carboxamide]",IC50,[1],< 100 nM
same,EC50,A549 cells,100 to 500 nM
"CNC(=O)c1cn(C[C@H](F)CCc2ccc(NC(=O)Cc3cc(C(F)(F)C4CC4)ccn3)nn2)nn1 [Example 267, (R)-1-(4-(6-(2-(4-(cyclopropyldifluoromethyl)pyridin-2-yl)acetamido)pyridazin-3-yl)-2-fluorobutyl)-N-methyl-1H-1,2,3-triazole-4-carboxamide]",IC50,[1],< 100 nM
same,EC50,A549 cells,< 100 nM
"O=C(NCc1cncc(C(F)(F)F)c1)c1cn(CCCCn2cc(C(=O)NCC3COC3)nn2)nn1 [Example 91, N-(oxetan-3-ylmethyl)-1-{4-[4-({[5-(trifluoromethyl)pyridin-3-yl]methyl}carbamoyl)-1H-1,2,3-triazol-1-yl]butyl}-1H-1,2,3-triazole-4-carboxamide]",IC50,[1],500 to 5000 nM
same,EC50,A549 cells,> 5000 nM
"O=C(Cc1ccccn1)Nc1cn(CC(F)CCn2cc(C(=O)NCc3cc(C(F)(F)F)ccn3)nn2)nn1 (stereo not shown) [Example 399, 1-(3-fluoro-4-{4-[2-(pyridin-2-yl)acetamido]-1H-1,2,3-triazol-1-yl}butyl)-N-{[4-(trifluoromethyl)pyridin-2-yl]methyl}-1H-1,2,3-triazole-4-carboxamide]",IC50,[1],< 100 nM
same,EC50,A549 cells,100 to 500 nM
"Cc1ccc(CNC(=O)c2nnc(CCCCn3cc(C(=O)NCc4cccc(OC(F)(F)F)c4)nn3)s2)cn1 [Example 60, N-[(6-methylpyridin-3-yl)methyl]-5-{4-[4-({[3-(trifluoromethoxy)phenyl]methyl}carbamoyl)-1H-1,2,3-triazol-1-yl]butyl}-1,3,4-thiadiazole-2-carboxamide]",IC50,[1],< 100 nM
same,EC50,A549 cells,< 100 nM
"O=C(NCc1ccc(C(F)(F)F)cn1)c1cn(CC(F)CCc2nnc(C(=O)NCc3cccc(OC(F)(F)F)c3)s2)nn1 (stereo not shown) [Example 445, 5-{3-fluoro-4-[4-({[5-(trifluoromethyl)pyridin-2-yl]methyl}carbamoyl)-1H-1,2,3-triazol-1-yl]butyl}-N-{[3-(trifluoromethoxy)phenyl]methyl}-1,3,4-thiadiazole-2-carboxamide]",IC50,[1],< 100 nM
same,EC50,A549 cells,< 100 nM
"O=C(Cc1cccc(OC(F)(F)F)c1)Nc1ccc(CCCCc2nnc(C(=O)NCCO)s2)nn1 [Example 37, N-(2-hydroxyethyl)-5-[4-(6-{2-[3-(trifluoromethoxy)phenyl]acetamido}pyridazin-3-yl)butyl]-1,3,4-thiadiazole-2-carboxamide]",IC50,[1],< 100 nM
same,EC50,A549 cells,< 100 nM
"O=C(NCc1cc(C(F)(F)F)ccn1)c1cn(CC(F)CCc2nnc(C(=O)NCc3cccc(OC(F)(F)F)c3)s2)nn1 (stereo not shown) [Example 446, 5-{3-fluoro-4-[4-({[4-(trifluoromethyl)pyridin-2-yl]methyl}carbamoyl)-1H-1,2,3-triazol-1-yl]butyl}-N-{[3-(trifluoromethoxy)phenyl]methyl}-1,3,4-thiadiazole-2-carboxamide]",IC50,[1],< 100 nM
same,EC50,A549 cells,< 100 nM
"O=C(CN1CC(F)C1)Nc1cn(CC(F)CCn2cc(C(=O)NCc3ccccn3)nn2)nn1 (stereo not shown) [Example 389, 1-(3-fluoro-4-{4-[2-(3-fluoroazetidin-1-yl)acetamido]-1H-1,2,3-triazol-1-yl}butyl)-N-(pyridin-2-ylmethyl)-1H-1,2,3-triazole-4-carboxamide]",IC50,[1],500 to 5000 nM
same,EC50,A549 cells,> 5000 nM
"CCOC(=O)NCc1cn(CCCCn2cc(C(=O)NCc3cccc(OC(F)(F)F)c3)nn2)nn1 [Example 54, ethyl N-[(1-{4-[4-({[3-(trifluoromethoxy)phenyl]methyl}carbamoyl)-1H-1,2,3-triazol-1-yl]butyl}-1H-1,2,3-triazol-4-yl)methyl] carbamate]",IC50,[1],100 to 500 nM
same,EC50,A549 cells,100 to 500 nM
"CNC(=O)c1cn(CCCCc2ccc(NC(=O)Cc3cc(-c4ccccc4C(F)(F)F)ccn3)nn2)nn1 [Example 605, N-methyl-1-(4-(6-(2-(4-(2-(trifluoromethyl)phenyl)pyridin-2-yl)acetamido)pyridazin-3-yl)butyl)-1H-1,2,3-triazole-4-carboxamide]",IC50,[1],< 100 nM
same,EC50,A549 cells,< 100 nM
"CNC(=O)c1cn(CC(F)CCn2cc(C(=O)NCc3cc(C(F)(F)F)ccn3)nn2)nn1 (stereo not shown) [Example 149, 1-{2-fluoro-4-[4-({[4-yl]methyl}carbamoyl)-1H-1,2,3-triazol-1-yl]butyl}-N-methyl-1H-1,2,3-triazole-4-carboxamide]",IC50,[1],100 to 500 nM
same,EC50,A549 cells,500 to 5000 nM
"O=C(CN1CC(F)C1)Nc1cn(CCCCn2cc(C(=O)NCc3cccc(OC(F)(F)F)c3)nn2)nn1 [Example 329, 1-(4-{4-[2-(3-fluoroazetidin-1-yl)acetamido]-1H-1,2,3-triazol-1-yl}butyl)-N-{[3-(trifluoromethoxy)phenyl]methyl}-1H-1,2,3-triazole-4-carboxamide]",IC50,[1],100 to 500 nM
same,EC50,A549 cells,500 to 5000 nM
"O=C(NCc1cccc(OC(F)(F)F)c1)c1cn(CCCCn2cc(C(=O)NCc3cnccn3)nn2)nn1 [Example 126, N-(pyrazin-2-ylmethyl)-1-{4-[4-({[3-(trifluoromethoxy)phenyl]methyl}carbamoyl)-1H-1,2,3-triazol-1-yl]butyl}-1H-1,2,3-triazole-4-carboxamide]",IC50,[1],100 to 500 nM
same,EC50,A549 cells,100 to 500 nM
"CNC(=O)c1cn(CCCCc2ccc(NC(=O)[C@@H](C)c3ccccc3)nn2)nn1 [Example 179, N-methyl-1-(4-{6-[(2S)-2-phenylpropanamido]pyridazin-3-yl}butyl)-1H-1,2,3-triazole-4-carboxamide]",IC50,[1],< 100 nM
same,EC50,A549 cells,500 to 5000 nM
"O=C(CN1CC(F)C1)Nc1cn(CCCCn2cc(C(=O)NCc3cc(OC(F)(F)F)ccc3F)nn2)nn1 [Example 350, N-{[2-fluoro-5-(trifluoromethoxy)phenyl]methyl}-1-(4-{4-[2-(3-fluoroazetidin-1-yl)acetamido]-1H-1,2,3-triazol-1-yl}butyl)-1H-1,2,3-triazole-4-carboxamide]",IC50,[1],100 to 500 nM
same,EC50,A549 cells,100 to 500 nM
"CC(NC(=O)c1cn(CCCCn2cc(C(=O)NCc3cc(C(F)(F)F)ccn3)nn2)nn1)c1cccc(OC(F)(F)F)c1 (stereo not shown) [Example 109, 1-{4-[4-({1-[3-(trifluoromethoxy)phenyl]ethyl}carbamoyl)-1H-1,2,3-triazol-1-yl]butyl}-N-{[4-(trifluoromethyl)pyridin-2-yl]methyl}-1H-1,2,3-triazole-4-carboxamide]",IC50,[1],< 100 nM
same,EC50,A549 cells,100 to 500 nM
"O=C(NCc1ccc(OC(F)(F)F)cc1)c1cn(CCC(F)Cn2cc(C(=O)NCc3cc(C(F)(F)F)ccn3)nn2)nn1 (stereo not shown) [Example 469, 1-{2-fluoro-4-[4-({[4-(trifluoromethoxy)phenyl]methyl}carbamoyl)-1H-1,2,3-triazol-1-yl]butyl}-N-{[4-(trifluoromethyl)pyridin-2-yl]methyl}-1H-1,2,3-triazole-4-carboxamide]",IC50,[1],< 100 nM
same,EC50,A549 cells,< 100 nM
"CNC(=O)c1nnc(CCC(F)Cn2cc(C(=O)NCc3ccccn3)nn2)s1 (stereo not shown) [Example 557, 5-(3-fluoro-4-{4-[(pyridin-2-ylmethyl)carbamoyl]-1H-1,2,3-triazol-1-yl}butyl)-N-methyl-1,3,4-thiadiazole-2-carboxamide]",IC50,[1],500 to 5000 nM
same,EC50,A549 cells,500 to 5000 nM
"O=C(NCc1cc(C(F)(F)F)ccn1)c1cn(CC(F)CCn2cc(C(=O)N[C@@H](CO)c3ccccc3)nn2)nn1 (stereo partly drawn) [Example 467, 1-[2-fluoro-4-(4-{[(1R)-2-hydroxy-1-phenylethyl]carbamoyl}-1H-1,2,3-triazol-1-yl)butyl]-N-{[4-(trifluoromethyl)pyridin-2-yl]methyl}-1H-1,2,3-triazole-4-carboxamide]",IC50,[1],100 to 500 nM
same,EC50,A549 cells,100 to 500 nM
"CNC(=O)c1cn(C[C@H](F)CCc2nnc(C(=O)NCc3cc(C(F)(F)F)ccn3)s2)nn1 (single isomer, unassigned) [Example 221]",IC50,[1],100 to 500 nM
same,EC50,A549 cells,100 to 500 nM
"CNC(=O)c1cn(CC(F)CCn2cc(NC(=O)Cc3cc(OC(F)(F)F)ccc3F)nn2)nn1 (stereo not shown) [Example 539, 1-[2-fluoro-4-(4-{2-[2-fluoro-5-(trifluoromethoxy)phenyl]acetamido}-1H-1,2,3-triazol-1-yl)butyl]-N-methyl-1H-1,2,3-triazole-4-carboxamide]",IC50,[1],< 100 nM
same,EC50,A549 cells,100 to 500 nM
"COc1ccnc(CNC(=O)c2cn(CC(F)CCc3nnc(NC(=O)Cc4cc(OC(F)(F)F)ccc4F)s3)nn2)c1 (stereo not shown) [Example 205, 1-(2-fluoro-4-(5-(2-(2-fluoro-5-(trifluoromethoxy)phenyl)acetamido)-1,3,4-thiadiazol-2-yl)butyl)-N-((4-methoxypyridin-2-yl)methyl)-1H-1,2,3-triazole-4-carboxamide]",IC50,[1],< 100 nM
same,EC50,A549 cells,< 100 nM
